Results published in PubChem BioAssay (NCI).
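A five-concentration, 48-hour dose response in 96-well plates underlies each endpoint, interpolated linearly between surrounding concentrations. TGI marks complete inhibition of growth.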

Tests used:
Assay in all cases: NCI tumour cell line growth inhibition, 48 h
SK-OV-3 ovarian = system: SK-OV-3 ovarian
M14 melanoma = system: M14 melanoma
OVCAR-4 ovarian = system: OVCAR-4 ovarian
SN12C renal = system: SN12C renal
SNB-19 CNS = system: SNB-19 CNS
RPMI-8226 leukemia = system: RPMI-8226 leukemia
UACC-257 melanoma = system: UACC-257 melanoma
PC-3 prostate = system: PC-3 prostate
K-562 leukemia = system: K-562 leukemia
SK-MEL-2 melanoma = system: SK-MEL-2 melanoma
COLO 205 colon = system: COLO 205 colon
HL-60(TB) leukemia = system: HL-60(TB) leukemia
MDA-N = system: MDA-N
UO-31 renal = system: UO-31 renal
NCI-H23 lung = system: NCI-H23 lung
DU-145 prostate = system: DU-145 prostate
NCI/ADR-RES ovarian = system: NCI/ADR-RES ovarian
EKVX NSCLC = system: EKVX NSCLC
MDA-MB-435 = system: MDA-MB-435
A498 renal = system: A498 renal
SR leukemia = system: SR leukemia
NCI-H226 lung = system: NCI-H226 lung
HCT-116 colon = system: HCT-116 colon
786-0 renal = system: 786-0 renal
UACC-62 melanoma = system: UACC-62 melanoma
TK-10 renal = system: TK-10 renal
CCRF-CEM leukemia = system: CCRF-CEM leukemia
HOP-92 NSCLC = system: HOP-92 NSCLC
KM12 colon = system: KM12 colon
U251 CNS = system: U251 CNS
HT29 colon = system: HT29 colon
SF-539 CNS = system: SF-539 CNS
LOX IMVI melanoma = system: LOX IMVI melanoma
MALME-3M melanoma = system: MALME-3M melanoma
HOP-62 NSCLC = system: HOP-62 NSCLC
SW-620 colon = system: SW-620 colon
RXF 393 renal = system: RXF 393 renal
IGROV1 ovarian = system: IGROV1 ovarian
OVCAR-3 ovarian = system: OVCAR-3 ovarian
HS 578T breast = system: HS 578T breast
CAKI-1 renal = system: CAKI-1 renal
OVCAR-5 ovarian = system: OVCAR-5 ovarian
NCI-H460 lung = system: NCI-H460 lung
A549 NSCLC = system: A549 NSCLC
NCI-H522 lung = system: NCI-H522 lung
T-47D breast = system: T-47D breast
SF-295 CNS = system: SF-295 CNS
MCF7 breast = system: MCF7 breast
MOLT-4 leukemia = system: MOLT-4 leukemia
MDA-MB-231 breast = system: MDA-MB-231 breast
SK-MEL-5 melanoma = system: SK-MEL-5 melanoma
SF-268 CNS = system: SF-268 CNS
SNB-75 CNS = system: SNB-75 CNS
OVCAR-8 ovarian = system: OVCAR-8 ovarian
HCT-15 colon = system: HCT-15 colon
SK-MEL-28 melanoma = system: SK-MEL-28 melanoma
ACHN renal = system: ACHN renal
HCC-2998 colon = system: HCC-2998 colon
BT-549 breast = system: BT-549 breast

Measured: TGI

Clc1ccc(C2=NNC(c3cccc(Cl)c3)C2)cc1 (configuration not stated)
96.8 µM: CCRF-CEM leukemia
59.6 µM: MDA-N
78.1 µM: SK-OV-3 ovarian
89.9 µM: NCI/ADR-RES ovarian
33.7 µM: LOX IMVI melanoma
53.2 µM: SN12C renal
97.4 µM: PC-3 prostate
28.1 µM: SK-MEL-5 melanoma
38.2 µM: HOP-92 NSCLC
74.9 µM: SW-620 colon
41.8 µM: MDA-MB-435
29.3 µM: COLO 205 colon
79.9 µM: TK-10 renal
41 µM: RPMI-8226 leukemia
55.1 µM: MDA-MB-231 breast
92.7 µM: 786-0 renal
37.5 µM: U251 CNS
45 µM: A498 renal
92.6 µM: SF-295 CNS
5.07 µM: IGROV1 ovarian
5.55 µM: SK-MEL-2 melanoma
21.4 µM: UO-31 renal
96.5 µM: SNB-75 CNS
14.4 µM: NCI-H522 lung
not listed: OVCAR-8 ovarian | HCT-15 colon | SK-MEL-28 melanoma | ACHN renal | HCC-2998 colon | BT-549 breast
> 100 µM: all other assays above

Clc1cc(-c2csc(Cl)c2)cs1
not listed: SK-OV-3 ovarian | K-562 leukemia | MALME-3M melanoma | HOP-62 NSCLC | T-47D breast | HCC-2998 colon | BT-549 breast
> 100 µM: all other assays above

CC1CC2OC(=N)C1(C#N)C2(C#N)C#N (configuration not stated)
36 µM: HOP-92 NSCLC
56.7 µM: SF-539 CNS
71.7 µM: PC-3 prostate
48.5 µM: OVCAR-5 ovarian
24.8 µM: COLO 205 colon
51.1 µM: EKVX NSCLC
33 µM: MDA-N
34.4 µM: HCC-2998 colon
33.6 µM: SN12C renal
38.4 µM: MDA-MB-231 breast
42 µM: A498 renal
41 µM: UACC-257 melanoma
37.8 µM: NCI-H522 lung
47.7 µM: HT29 colon
48 µM: RPMI-8226 leukemia
93 µM: UO-31 renal
66.3 µM: SF-268 CNS
63.7 µM: NCI-H23 lung
44.3 µM: CCRF-CEM leukemia
56.2 µM: K-562 leukemia
44.9 µM: 786-0 renal
71.6 µM: TK-10 renal
31 µM: LOX IMVI melanoma
43.3 µM: HCT-116 colon
35.2 µM: HOP-62 NSCLC
30.6 µM: HCT-15 colon
48.9 µM: MALME-3M melanoma
43.1 µM: SNB-75 CNS
22.2 µM: SK-MEL-5 melanoma
51.4 µM: IGROV1 ovarian
97.4 µM: T-47D breast
31.1 µM: RXF 393 renal
20.5 µM: CAKI-1 renal
43.5 µM: SK-MEL-2 melanoma
not listed: OVCAR-4 ovarian | HL-60(TB) leukemia | OVCAR-3 ovarian | NCI-H460 lung | BT-549 breast
> 100 µM: all other assays above

Cc1cnc2cc(Cl)ccc2c1SCC(=O)O
not listed: SK-OV-3 ovarian | COLO 205 colon | SF-539 CNS | MCF7 breast | SNB-75 CNS | HCC-2998 colon
> 100 µM: all other assays above
